PubChem BioAssay (NCI)
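A five-concentration, 48-hour dose response in 96-well plates underlies each endpoint, interpolated linearly between surrounding concentrations. The concentration for 50% growth inhibition is given as GI50. The concentration for full growth arrest is given as TGI.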

Columns and labels:
Assay in all cases: inhibition of tumour cell growth, NCI panel, 48 h
MOLT-4 leukemia = tested on: MOLT-4 leukemia
CCRF-CEM leukemia = tested on: CCRF-CEM leukemia
EKVX NSCLC = tested on: EKVX NSCLC
HCT-15 colon = tested on: HCT-15 colon
SNB-75 CNS = tested on: SNB-75 CNS
SW-620 colon = tested on: SW-620 colon
RPMI-8226 leukemia = tested on: RPMI-8226 leukemia
DU-145 prostate = tested on: DU-145 prostate
UACC-62 melanoma = tested on: UACC-62 melanoma
SK-MEL-2 melanoma = tested on: SK-MEL-2 melanoma

Row | SMILES | GI50 (MOLT-4 leukemia) | TGI (MOLT-4 leukemia) | GI50 (CCRF-CEM leukemia) | TGI (CCRF-CEM leukemia) | GI50 (EKVX NSCLC) | TGI (EKVX NSCLC) | GI50 (HCT-15 colon) | TGI (HCT-15 colon) | GI50 (SNB-75 CNS) | TGI (SNB-75 CNS) | GI50 (SW-620 colon) | TGI (SW-620 colon) | GI50 (RPMI-8226 leukemia) | TGI (RPMI-8226 leukemia) | GI50 (DU-145 prostate) | TGI (DU-145 prostate) | GI50 (UACC-62 melanoma) | TGI (UACC-62 melanoma) | GI50 (SK-MEL-2 melanoma) | TGI (SK-MEL-2 melanoma)
1 | COC1(C(=O)N[C@@H](C)c2ccc(-n3cc(F)cn3)nc2)CCC(c2nc(C)cc(Nc3cc(C)[nH]n3)n2)CC1 (some centres undefined) | 3.48 µM | > 100 µM | 11 µM | > 100 µM | 0.688 µM | 2.94 µM | 2.93 µM | 13.3 µM | 0.196 µM | 0.848 µM | 2.32 µM | 24.2 µM | 7.18 µM | 40 µM | 1.8 µM | 4.63 µM | 4.14 µM | 17.4 µM | 6.82 µM | 23.2 µM
2 | CC1SC(c2c(Cl)cccc2Cl)N(NC(=O)c2[nH]c3ccc(F)cc3c2-c2ccccc2)C1=O (centres undefined) | 13.2 µM | 64.7 µM | 4.79 µM | 42.5 µM | 2.33 µM | 10.8 µM | 3.73 µM | 22.2 µM | 1.43 µM | 3.27 µM | 3.19 µM | 11.2 µM | 5.59 µM | > 100 µM | 1.92 µM | 4.36 µM | 4 µM | 32.5 µM | 3.29 µM | 15.6 µM
3 | COc1ccc2nc3cc([N+](=O)[O-])ccc3c(NCCCCCN(C)C)c2c1 | 0.105 µM | 1.04 µM | 0.295 µM | 3.09 µM | 1.59 µM | 7.27 µM | 1.31 µM |  | 0.247 µM | 1.1 µM | 0.272 µM | 3 µM | 0.0741 µM | 1.25 µM | 0.286 µM | 11.3 µM | 0.231 µM | 0.74 µM | 0.0208 µM | 0.214 µM
4 | COc1cccc(/C=C/C(=O)c2cccc(Nc3nc(Nc4ccccc4)nc(Nc4ccccc4)n3)c2)c1 | 3.86 µM | 26.3 µM | 5.26 µM | 45.5 µM | > 20.2 µM | > 78.6 µM | 9.59 µM | > 100 µM | 11.8 µM | > 94.8 µM | 3.68 µM | > 48.3 µM | 1.78 µM | 6.49 µM | 19.9 µM | > 100 µM | > 100 µM | > 100 µM | > 33.4 µM | > 100 µM
5 | CCN(CC)CCn1ccc(=O)c2cc3c(=O)ccn(CCN(CC)CC)c3c(C)c21 |  | > 100 µM |  | 29.6 µM |  | 18.8 µM |  | 15.6 µM |  | 22.7 µM |  | 5.26 µM |  | 6.8 µM |  | 20.7 µM |  | 29.2 µM |  | 24.5 µM
6 | C=CCc1c2c(c(OC)c3ccoc13)C(=O)/C(=C/c1ccccc1OC)O2 | 3.52 µM | > 100 µM | 3.44 µM | > 100 µM | 4.41 µM | > 100 µM | 3.6 µM | > 100 µM | 1.44 µM | 4.91 µM | 4.24 µM | > 100 µM | 3.51 µM | > 100 µM | 3.19 µM | > 100 µM | 4.14 µM | 58.4 µM | 6.06 µM | > 100 µM
7 | CC1(C)SC2C(NC(=O)C(N)c3ccccc3)C(=O)N2C1C(=O)O (centres undefined) |  | > 100 µM |  | > 100 µM |  | > 100 µM |  | > 100 µM |  | > 100 µM |  | > 100 µM |  | > 100 µM |  | > 100 µM |  | > 100 µM |  | > 100 µM
8 | CCN(CC)c1ccc(C(=C2C=CC(=[N+](CC)Cc3cccc(S(=O)(=O)O)c3)C=C2)c2ccc(N(CC)Cc3cccc(S(=O)(=O)O)c3)cc2)cc1 | 11.1 µM | > 89.7 µM | 6.59 µM | 98.5 µM | 6.82 µM | > 100 µM | 28.5 µM | > 100 µM | 2.75 µM | 17.3 µM | 4.45 µM | > 100 µM | 3.32 µM | > 51.1 µM | 4.74 µM | > 100 µM | 13 µM | 87 µM | 10.5 µM | > 92.2 µM
9 | Cc1ccc2c(ccc3c[n+]4c5ccccc5ccc4n32)c1 | 1.65 µM | 9.65 µM | 2.46 µM | 10.6 µM | 0.484 µM | 25.4 µM | 7.33 µM | > 100 µM | 1.18 µM | 8.05 µM | 0.508 µM | 10.7 µM | 2.72 µM | 18.8 µM | 1.32 µM | 12.3 µM | 0.795 µM | 2.32 µM | 1.64 µM | 3.9 µM
10 | Cc1sc(C(=O)Nc2cc(C(=O)NCCCN(C)C)n(C)c2)cc1NC(=O)CCCN1C(=O)c2cccc3cccc(c23)C1=O | 88.3 µM | > 100 µM | > 100 µM | > 100 µM | > 100 µM | > 100 µM | > 100 µM | > 100 µM | > 100 µM | > 100 µM | > 100 µM | > 100 µM | > 100 µM | > 100 µM | > 100 µM | > 100 µM | > 100 µM | > 100 µM | > 100 µM | > 100 µM
11 | CCN(CC)S(=O)(=O)c1ccc(OC)c(Nc2ncc(-c3ccccc3)o2)c1 | > 18.3 µM | > 25 µM | > 19.3 µM | > 25 µM | > 25 µM | > 25 µM | > 15.5 µM | > 25 µM | > 9.36 µM | > 25 µM | > 23.7 µM | > 25 µM | > 25 µM | > 25 µM | > 25 µM | > 25 µM | > 18.3 µM | > 25 µM | > 22.7 µM | > 25 µM
12 | CCCCOc1ccc(NC(N)=Nc2ccc(Cl)cc2)cc1 |  | > 42 µM |  | > 35.7 µM |  | 14.7 µM |  | 23.1 µM |  | 15.3 µM |  | 16.1 µM |  | > 49.5 µM |  | 13.6 µM |  | 26 µM |  | 9.73 µM
13 | COc1ccc(N2C(C)=C(C#N)C34C(=O)N(c5ccccc5)C(=O)C3=C(O)C=CC24O)cc1 (centres undefined) | 21.2 µM | 71.7 µM | 3.09 µM | 15.6 µM | 22.3 µM | 85.8 µM | 13.8 µM | 33.8 µM | 14.8 µM | 44.5 µM | 10.3 µM | 24.6 µM | 3.44 µM | 19.3 µM | 10.5 µM | 26.8 µM | 5.06 µM | 18.7 µM | 19.5 µM | 46.3 µM
14 | O=C(Cn1ccc(=O)[nH]c1=O)Nc1ccc(C(=O)O)c(O)c1 |  | > 100 µM |  | > 100 µM |  | > 100 µM |  | > 100 µM |  | > 100 µM |  | > 100 µM |  | > 100 µM |  | > 100 µM |  | > 100 µM |  | > 100 µM
15 | O=CNc1c(Cl)cc2c(c1Cl)Cc1cc([N+](=O)[O-])ccc1-2 | 2.13 µM | > 100 µM | 0.445 µM | > 100 µM | 0.359 µM | 13.6 µM | 3.27 µM | > 100 µM | 2.84 µM | 21.5 µM | 3.33 µM | > 100 µM | 2.59 µM | > 100 µM | 7.72 µM | > 49.9 µM | 3.98 µM | > 100 µM | 27.9 µM | > 86.6 µM
16 | COC(=O)[C@@H](C)C[C@H](Cc1ccccc1)NC(=O)c1nc([C@@H](C[C@H](C(C)C)N(C)C(=O)[C@@H](NC(=O)[C@H]2CCCCN2C)C(C)C)OC(C)=O)sc1C | 0.00225 µM | > 16.7 µM | < 0.00167 µM | > 16.7 µM | 0.00666 µM | > 16.7 µM | 0.00536 µM | > 16.7 µM | < 0.00167 µM | > 7.57 µM | < 0.00167 µM | > 16.7 µM | < 0.00167 µM | > 11.4 µM | < 0.00167 µM | > 16.7 µM | < 0.00167 µM | > 16.7 µM | < 0.00167 µM | > 16.7 µM
17 | Cc1ccc(S(=O)(=O)N2CCSCCSCCSCCSCC2)cc1 |  | > 100 µM |  | > 100 µM |  | > 89.9 µM |  | > 100 µM |  | 29.8 µM |  | > 100 µM |  | > 100 µM |  | > 100 µM |  | 38.1 µM |  | > 53.6 µM
18 | CN(CCCN)CCCNc1nc2ccccc2c2[nH]c3ccccc3c12 | 0.186 µM | 1.24 µM | 0.173 µM | 1.58 µM | 1.44 µM | 8.2 µM | 0.446 µM | 9.68 µM | 0.272 µM | 0.943 µM | 0.315 µM | 1.64 µM | 0.207 µM | 0.947 µM | 0.3 µM | 10.3 µM | 0.285 µM | 0.692 µM | 0.306 µM | 0.835 µM
19 | COc1c(CCC[P+](c2ccccc2)(c2ccccc2)c2ccccc2)cc2c(c1OC)OCO2 | 3.12 µM | 16.3 µM | 1.7 µM | > 100 µM | 3.88 µM | 51.1 µM | 14.7 µM | 71.1 µM | 1.3 µM | 5.18 µM | 1.93 µM | 11.1 µM | 0.233 µM | 1.72 µM | 3.56 µM | > 100 µM | 0.569 µM | 5.53 µM | 3.03 µM | 14.1 µM
20 | O=C(CC(=O)CC(O)(C(F)(F)F)C(F)(F)F)CC(O)(C(F)(F)F)C(F)(F)F |  | > 10 µM |  | > 10 µM |  | > 10 µM |  | > 10 µM |  | > 10 µM |  | > 10 µM |  | > 10 µM |  | > 10 µM |  | > 10 µM |  | > 10 µM
